Data: a compilation of properties of binary mixtures (doi:10.1016/j.molliq.2019.111925)

Assay: xn = mol fraction of the nth substance listed
Details: 100 kPa

O + CC(=O)[O-].CC[n+]1ccn(C)c1
x2 = 0
Details | speed of sound [m/s]
293.15 K | 1485
298.15 K | 1499
303.15 K | 1511
333.15 K | 1551
343.15 K | 1554

CC(=O)[O-].CC[n+]1ccn(C)c1 + O
Details | electrical conductivity [S/m] | speed of sound [m/s]
293.15 K, x1 = 0.105 | – | 1942
293.15 K, x1 = 0.1988 | – | 1959
293.15 K, x1 = 0.2003 | 1.59 | –
293.15 K, x1 = 0.3952 | 0.833 | –
293.15 K, x1 = 0.4445 | – | 1852
293.15 K, x1 = 0.5602 | – | 1776
293.15 K, x1 = 0.5984 | 0.49 | –
293.15 K, x1 = 0.7375 | – | 1778
293.15 K, x1 = 0.8521 | – | 1762
293.15 K, x1 = 0.9481 | 0.228 | –
293.15 K, x2 = 0.0174 | – | 1753
298.15 K, x1 = 0.4445 | – | 1839
298.15 K, x1 = 0.5602 | – | 1764
298.15 K, x1 = 0.7375 | – | 1765
298.15 K, x1 = 0.8521 | – | 1749
298.15 K, x1 = 0.9481 | 0.301 | –
298.15 K, x1 = 1 | 0.299 | 1740
298.15 K, x2 = 0.0174 | – | 1740
303.15 K, x1 = 0.105 | – | 1917
303.15 K, x1 = 0.1988 | – | 1932
303.15 K, x1 = 0.3952 | 1.28 | –
303.15 K, x1 = 0.4445 | – | 1827
303.15 K, x1 = 0.5602 | – | 1753
303.15 K, x1 = 0.5984 | 0.776 | –
303.15 K, x1 = 0.7375 | – | 1753
303.15 K, x1 = 0.8521 | – | 1736
303.15 K, x1 = 0.9481 | 0.392 | –
303.15 K, x1 = 1 | 0.391 | 1727
303.15 K, x2 = 0.0174 | – | 1726
313.15 K, x1 = 0.1988 | – | 1904
313.15 K, x1 = 0.2003 | 3.32 | –
313.15 K, x1 = 0.3952 | 1.84 | –
313.15 K, x1 = 0.4445 | – | 1803
313.15 K, x1 = 0.5602 | – | 1729
313.15 K, x1 = 0.5984 | 1.16 | –
313.15 K, x1 = 0.7375 | – | 1729
313.15 K, x1 = 0.7987 | 0.819 | –
313.15 K, x1 = 0.8521 | – | 1712
313.15 K, x1 = 0.9481 | 0.627 | –
313.15 K, x1 = 1 | 0.625 | 1701
313.15 K, x2 = 0.0174 | – | 1701
323.15 K, x1 = 0.105 | – | 1864
323.15 K, x1 = 0.2003 | 4.45 | –
323.15 K, x1 = 0.3952 | 2.52 | –
323.15 K, x1 = 0.4445 | – | 1779
323.15 K, x1 = 0.5602 | – | 1707
323.15 K, x1 = 0.7375 | – | 1705
323.15 K, x1 = 0.7987 | 1.19 | –
323.15 K, x1 = 0.8521 | – | 1687
323.15 K, x1 = 0.9481 | 0.934 | –
323.15 K, x1 = 1 | 0.929 | 1676
323.15 K, x2 = 0.0174 | – | 1676
333.15 K, x1 = 0.105 | – | 1846
333.15 K, x1 = 0.1988 | – | 1848
333.15 K, x1 = 0.2003 | 5.75 | –
333.15 K, x1 = 0.3952 | 3.32 | –
333.15 K, x1 = 0.5602 | – | 1690
333.15 K, x1 = 0.5984 | 2.19 | –
333.15 K, x1 = 0.7375 | – | 1682
333.15 K, x1 = 0.7987 | 1.64 | –
333.15 K, x1 = 0.8521 | – | 1664
343.15 K, x1 = 0.105 | – | 1809
343.15 K, x1 = 0.4445 | – | 1731
343.15 K, x1 = 0.5602 | – | 1668
343.15 K, x1 = 0.7375 | – | 1659
343.15 K, x1 = 0.9481 | 1.76 | –
343.15 K, x2 = 0.0174 | – | 1629
353.15 K, x1 = 0.9481 | 2.28 | –
353.15 K, x1 = 1 | 2.28 | –
